# Results reported in US4232121A, “Process for selecting methine dyes which inhibit cell growth” (Eastman Kodak Company, priority 1978, dated 1980).
# Read-outs that look alike come from different tables or passages of the source.
# Legend:
# [1] = Oxidation potential (Eox) of the dye; type: physicochemical; details: Tables I, II, V, VI
# [2] = test system: Bacillus pumilus strain K-1; assay: Inhibition of bacterial growth, filter paper on inoculated agar plates; type: cell-based; details: for zone of inhibition at 1000 µM / zone of inhibition at 100 µM: read-out: Diameter of Inhibition
# Method: Nutrient broth was prepared by mixing 8 grams of BACTO dehydrated nutrient broth per liter of distilled water. […] Samples of the nutrient broth were then inoculated with Bacillus pumilus strain K-1 culture. […]
# Nutrient agar was prepared by mixing 23 grams of BACTO nutrient agar per liter of distilled water. The nutrient agar was sterilized in the same way as the nutrient broth. After it has cooled to about 45° C. 250 ml of the nutrient agar solution was aeseptically inoculated with 5 ml of the Bacillus pumilus, K-1 culture prepared in (A), above. Plates of the inoculated nutrient agar were then poured and allowed to harden.
# […] To minimize possible photocatalyzed reactions of the dyes, all preparations were performed under yellow lights and all incubations were performed in the dark.
# Schleider and Schuell #740-E filter paper (12.7 mm diameter) was dipped in the dye solution, touched to the side of the beaker to removed excess dye, and placed in the center of the inoculated agar plates (prepared in (B) above). […] The plates were then examined to determine if bacterial growth had been affected by the dye-containing filter paper. […]
# Control plates were prepared in which the filter paper contained methanol or a 0.2 molar aqueous solution of phenol. […]
# [3] = not told
# Bacillus pumilus (K-1) = test system: Bacillus pumilus (K-1)
# Method: This can be accomplished by contacting a given concentration of the dye with the cells, removing the cells from the dye solution and then comparing the optical density (at λmax) of the remaining dye solution with a control containing the original concentration of the dye. The percentage decrease in optical density indicates the percentage of dye which has been bound to the cells.
# The culture was collected by centrifugation at 5,000×g. for 10 minutes, and the resultant pellet was washed several times in cold 0.05 M potassium phosphate buffer, pH 7.0. The pellet was resuspended in the buffer solution to a final optical density of 1.0 at 620 nm as measured with a Bausch and Lomb Spectronic 20.
# One-tenth ml of dye solution (1 mg/ml in methanol) was added to a tube containing 5 ml of cell suspension described above and a control tube containing 0.05 M potassium phosphate buffer, pH 7.0. All tubes were well agitated using a Vari-Whirl Mixer (Will Scientific Co.) and then centrifuged at 10,000×g. for 10 minutes.
# The percent binding of dye to the cells for each dye, was determined by comparison of the density at λmax of the control supernatant sample with the density at λmax of the supernatant of the cell sample.
# Sea Urchin Eggs = assay: Inhibition of cell division in fertilized sea urchin eggs; type: cell-based; details: arbitrary scale 0 to 5, 5 most active; dye 10^-5 to 10^-6 molar, 60 minutes after fertilization
# Method: To suspensions in filtered sea water of fertilized sea urchin eggs there was added, three minutes after fertilization, methanolic solutions of the dyes in an amount sufficient to yield a final concentration of dye of between 10^-5 and 10^-6 molar. The final concentration of methanol was, at a maximum 1×10^-4 molar. The eggs were visually observed at 60 minutes after fertilization to determine if cell division and the formation of mitotic apparatus had been inhibited. A rating was assigned based on the concentration of dye required to inhibit cell division and synthesis of DNA.
# Alcaligenes faecalis = assay: Inhibition of bacterial growth, filter paper technique; type: cell-based; details: Alcaligenes faecalis, 48 h, read-out: Area of Inhibition (diameter), control
# Method: (§1) Schleider and Schuell #740-E filter paper (12.7 mm diameter) was dipped in the dye solution, touched to the side of the beaker to removed excess dye, and placed in the center of the inoculated agar plates (prepared in (B) above). The plates were then incubated at 26° C. for […]. The plates were then examined to determine if bacterial growth had been affected by the dye-containing filter paper. With certain dyes bacterial growth was inhibited in a circular area around the filter paper. With other dyes no such area of inhibition was observed.
# (§2) Cultures of various gram-negative and gram-positive bacteria were prepared in nutrient and Tryptic Soy Agar and plates were poured as described in Example 1. Methanolic solutions of cyanine dyes were prepared at 10^-3 molar and applied to the plates using the filter paper technique described in Example 1. Control plates were prepared in which the filter paper contained methanol or a 0.2 molar aqueous solution of phenol. The plates were then incubated at 26° C. or 37° C. for forty-eight hours.
# Bacillus cereus = assay: as above; type: cell-based; details: Bacillus cereus, 48 h, read-out: Area of Inhibition (diameter), control
# Method: as §1, §2
# Bacillus megaterium = assay: as above; type: cell-based; details: Table VIII; 0.2 M phenol; Tryptic Soy; 37° C./48 hrs
# Method: as §1, §2
# Bacillus subtilis = assay: as above; type: cell-based; details: 48 h, read-out: Area of Inhibition (diameter), control
# Method: as §1, §2
# Enterobacter aerogenes = assay: as above; type: cell-based; details: Table VIII; 0.2 M phenol; 37° C./48 hrs
# Method: as §1, §2
# [4] = test system: Escherichia coli, Strain B; assay: as above; type: cell-based; details: Table VIII; 0.2 M phenol; 37° C./48 hrs
# Method: as §1, §2
# Micrococcus flavus = assay: as above; type: cell-based; details: Micrococcus flavus, 48 h, read-out: Area of Inhibition (diameter), control
# Method: as §1, §2
# Micrococus luteus = assay: as above; type: cell-based; details: 48 h, read-out: Area of Inhibition (diameter), control
# Method: as §1, §2
# Proteus vulgaris = assay: as above; type: cell-based; details: Table VIII; 0.2 M phenol; 37° C./48 hrs
# Method: as §1, §2
# [5] = Bacillus pumilus, K1, 72 h, Tables V and VI, 10^-3 molar, three days
# [6] = Bacillus pumilus, K1, Table II, 10^-4 molar, 26° C., forty-eight hours
# [7] = Bacillus pumilus, K1, Table IX, 10^-4 M
# [8] = Bacillus pumilus, K1, Table IX, 10^-3 M
# [9] = Table II, 10^-4 molar, 26° C., forty-eight hours
# [10] = Bacillus pumilus, K1, read-out: Diameter of Inhibition
SMILES,Eox [1],ER [3],% Bound (Bacillus pumilus (K-1)) [%],reduction potential (ER) [3] [volts],Activity Rating [2],Sea Urchin Eggs Activity (Sea Urchin Eggs),other results
"CCN1C(=CC=Cc2oc3cc(Cl)ccc3[n+]2CC)Oc2cc(Cl)ccc21 [7,6,6'-dichloro]",+1.07,-1.17,,,,,"zone of inhibition at 1000 µM [2, 5]: 28.5 mm"
"CCN1C(=CC=Cc2oc3cc(OC)ccc3[n+]2CC)Oc2cc(OC)ccc21 [7,6,6'-dimethoxy]",+.84,-1.31,,,,,"zone of inhibition at 1000 µM [2, 5]: 28.5 mm"
"CCN1C(=CC=Cc2oc3cc(S(=O)(=O)[O-])ccc3[n+]2CC)Oc2cc(S(=O)(=O)O)ccc21 [7,6,6'-disulfo]",+1.00,-1.26,,,,,"Diameter of Inhibition ([2]; Tables V and VI, 10^-3 molar, three days): None"
"CCN1C(=CC=Cc2sc3ccc(Cl)cc3[n+]2CC)Sc2ccc(Cl)cc21 [17,5,5'-dichloro]",+.85,-.86,,,,,"zone of inhibition at 1000 µM [2, 5]: 14 mm"
CCN1C(=CC=Cc2oc3cc(OC)ccc3[n+]2CC)Oc2cc(OC)ccc21 [Dye 4],,,97.2,-1.31,71,+4,"zone of inhibition at 1000 µM [2, 8]: 28.5 mm"
CCN1C(=Cc2ccc3ccccc3[n+]2CC)C=Cc2ccccc21 [Dye 16],,-1.03,28.7,-1.03,100,+5,"zone of inhibition at 100 µM [2, 6]: 25.5 mm; zone of inhibition at 100 µM [2, 7]: 25.5 mm"
CCN1C(=CC=Cc2sc3cc4ccccc4cc3[n+]2CC)Sc2cc3ccccc3cc21 [Dye 19],,,100,,,0,
CCN1C(=CC=CC=Cc2sc3ccccc3[n+]2CC)Sc2ccccc21 [Dye 22],,,98.4,-0.83,,,"zone of inhibition at 100 µM [2, 6]: 15 mm; zone of inhibition at 100 µM [2, 7]: 15 mm; Activity Rating ([2]; Table IX, 10^-4 M, relative to phenol concentration giving equal diameter, Dye 7 = 100): 11"
Clc1ccc2nc3c(nc2c1)N(c1ccccc1)C(=CC=Cc1n(-c2ccccc2)c2nc4ccc(Cl)cc4nc2[n+]1-c1ccccc1)N3c1ccccc1 [Dye 25],,,92.6,-0.65,,0,
Cn1c(-c2ccccc2)c(C=Cc2sc3cc([N+](=O)[O-])c(Cl)cc3[n+]2C)c2ccccc21 [Dye 31],> +1.00,,54.2,-0.41,0,0,"Diameter of Inhibition [2, 9]: None; Diameter of Inhibition ([2]; Table IX, 10^-4 M): None"
CC[n+]1c(C=Cc2c(-c3cccnc3)n(C)c3ccccc23)sc2cc([N+](=O)[O-])ccc21 [Dye 32],> +1.00,,61.0,-0.32,0,+2,"Diameter of Inhibition [2, 9]: None; Diameter of Inhibition ([2]; Table IX, 10^-4 M): None"
Cn1c(-c2ccccc2)c(C=CC=C2C(c3ccccc3)=[N+](C)c3c2ccc2ccccc32)c2ccc3ccccc3c21 [Dye 34],,,75.0,-0.11,0,0,"Diameter of Inhibition ([2]; Table I, 10^-4 molar, 26° C., fifty hours, dark): None; Diameter of Inhibition [2, 9]: None; Diameter of Inhibition ([2]; Table IX, 10^-4 M): None"
"Oc1ccccc1 [Phenol, reference compound]",,,,,,,"zone of inhibition at 200000 µM ([2]; Bacillus pumilus, K1, 48 h, read-out: Area of Inhibition (diameter), control): 22 mm; zone of inhibition at 53000 µM [2, 10]: 18 mm; zone of inhibition at 106000 µM [2, 10]: 22 mm; zone of inhibition at 213000 µM [2, 10]: 26 mm; zone of inhibition at 200000 µM (Alcaligenes faecalis): 15 mm; zone of inhibition at 200000 µM (Bacillus cereus): 14 mm; Area of Inhibition (diameter), control (Bacillus megaterium): Slight; zone of inhibition at 200000 µM (Bacillus subtilis): 13 mm; Area of Inhibition (diameter), control (Enterobacter aerogenes): No; Area of Inhibition (diameter), control [4]: No; zone of inhibition at 200000 µM (Micrococcus flavus): 16 mm; zone of inhibition at 200000 µM (Micrococus luteus): 15 mm; Area of Inhibition (diameter), control (Proteus vulgaris): No"

# Now from value to compound, other results behind:
Eox [1],ER [3],% Bound (Bacillus pumilus (K-1)) [%],reduction potential (ER) [3] [volts],SMILES,Activity Rating [2],Sea Urchin Eggs Activity (Sea Urchin Eggs),other results
+.96,-1.28,,,"CCN1C(=CC=Cc2oc3ccc(C)cc3[n+]2CC)Oc2ccc(C)cc21 [7,5,5'-dimethyl]",,,"zone of inhibition at 1000 µM [2, 5]: 27 mm"
,-1.35,11.2,-1.35,CCN1C(=CC=Cc2scc(-c3ccccc3)[n+]2CC)SC=C1c1ccccc1 [Dye 3],29,+5,"zone of inhibition at 100 µM ([2]; Bacillus pumilus, K1, Table I, 10^-4 molar, 26° C., fifty hours, dark): 18.5 mm; zone of inhibition at 100 µM [2, 6]: 19 mm; zone of inhibition at 100 µM [2, 7]: 19 mm"
,,97.6,-1.28,CCN1C(=CC=Cc2oc3ccc(C)cc3[n+]2CC)Oc2ccc(C)cc21 [Dye 5],65,+4,"zone of inhibition at 1000 µM [2, 8]: 27 mm"
,-1.06,74.9,-1.06,CCC(=Cc1sc2ccc(Cl)cc2[n+]1CC)C=C1Sc2ccc(Cl)cc2N1CC [Dye 15],04,+4,"zone of inhibition at 100 µM [2, 6]: 13.5 mm; zone of inhibition at 100 µM [2, 7]: 13.5 mm"
,,76.3,-0.86,CCN1C(=CC=Cc2sc3ccc(Cl)cc3[n+]2CC)Sc2ccc(Cl)cc21 [Dye 20],9,+3,"zone of inhibition at 1000 µM [2, 8]: 14 mm"
> +1.00,,56.3,-0.64,CCN1C(=CN=Nc2sc3ccccc3[n+]2CC)Sc2ccccc21 [Dye 26],8,+2,"zone of inhibition at 100 µM [2, 6]: 14.5 mm; zone of inhibition at 100 µM [2, 7]: 14.5 mm"
> +1.00,,,-0.63,CCN1C(=CC=Cc2sc3cc4ccccc4nc3[n+]2CC)Sc2cc3ccccc3nc21 [Dye 27],0,0,"Diameter of Inhibition [2, 9]: None; Diameter of Inhibition ([2]; Table IX, 10^-4 M): None"
,,57.3,-0.60,CCN1C(=Cc2ccc3ccccc3[n+]2CC)Sc2cc([N+](=O)[O-])ccc21 [Dye 28],0,,"Diameter of Inhibition [2, 9]: None; Diameter of Inhibition ([2]; Table IX, 10^-4 M): None"
